Values joined by “and” are separate entries in the source; they are usually repeats but may differ in a detail not shown here. Identical values can stand only once.
Legend:
corneal blood vessels = type: in vivo, New Zealand albino rabbit
Source text: Both corneal and limbal epithelia, along with the conjunctival epithelium 2-3 mm beyond the limbus, were removed from New Zealand albino rabbit eyes by n-heptanol debridement and surgical scraping (Huang et al., Ophthalmology, 95:228-235, 1988, the disclosure of which is hereby incorporated by reference and relied upon). The denuded corneas were healed by the remaining conjunctival epithelium within 9 to 12 days, of which 65% became extensively vascularized two to three weeks after healing. Sixteen corneas with persistent neovascularization of 20 months duration were subjected to photothrombotic treatment.
Occlusion of corneal blood vessels was achieved by intravenous injection of the rose bengal solution at a dosage of 40 mg/kg body weight followed by irradiation of the blood vessels with an argon green laser beam (514.5 nm in wavelength) set at a power of 130 mW, beam spot size of 63 μm in diameter, and duration of 0.2 second. During the irradiation, the corneal surface was rinsed with a balanced salt solution maintained at 37° C. to ensure the efficacy of photothrombosis. The laser beam was applied to the limbus at the arborization point of each feeder vessel. In 12 corneas, the blood vessels on the upper half of the cornea were photothrombosed and those on the lower half were left untreated and used as an internal control. In the remaining four corneas, the blood vessels on the entire cornea were treated. Each blood vessel was occluded within 10 consecutive shots of irradiation. For all corneas, the treatment was completed within 30 minutes after initial injection of rose bengal solution. After laser irradiation, topical antibiotics and steroids were applied for two days. This treatment was similar to that described in Watson et al., Lasers Surg. Med., 7:127, 1987.
External ocular examinations were performed to identify changes on the ocular surface before and after photothrombosis. Surface smoothness was examined by routine slitlamp biomicroscopy. External photographs were taken to document corneal clarity and regression of the vessels.
Occlusion of the corneal blood vessels and the duration of occlusion were further studied by routine corneal fluorescein angiography using an intravenous injection of 1 ml of 10 mg/ml of sodium fluorescein. Photographs and angiograms were taken with a Zeiss surgical microscope. Baseline angiography was performed two to three days before photothrombosis to avoid possible photosensitizing effects from the fluorescein used for angiography. Follow-up angiograms were taken on the scheduled dates to document the occlusive effect and its duration. Late phase fluorescein angiograms (5 minutes after injection) were chosen for comparisons. After occlusion was confirmed by angiography, the rabbits were sacrificed on the prescheduled date and corneal buttons were obtained and subjected to epithelial differentiation studies. The total follow-up duration was 18 weeks.

corneal neovasculature = type: in vivo, New Zealand white rabbit
Source text: Nine New Zealand white strain rabbits weighting 1 to 2 kg were rendered hypercholesterolemic by foods that contained high levels of cholesterol, as described in Stock et. al., Arch. Ophthalmol., 103:726-730, 1985; and Mendelsohn et al., Ophthalmic Surg., 17:502-508, 1986. Eight days after commencement of the high-cholesterol diet, corneal sutures were implanted in both eyes according to the surgical procedure described in Mendelsohn et al., Ophthalmic Surg., 17:502-508, 1986.
On day 22, slit-lamp photographs and fluorescein angiograms were obtained of all corneas (Mendelsohn et al., Arch. Ophthalmol., 105:983-988, 1987, the disclosure of which is hereby incorporated by reference and relied upon). On the next day, one eye of each rabbit underwent laser surgery, with the other eye serving as a comparative control. Rose bengal dye was dissolved at a concentration of 30 mg/ml in 0.9% saline solution. For the initial injection, the dye solution was administered at a total body concentration of 45 mg/kg. For the two animals in which the procedure took longer than 25 minutes, a booster injection of 15 mg/kg was administered. Irradiations of corneal vessels were carried out with an argon ion laser (Model 95, Cooper Laser-Sonica, Sunnyvale, Calif.) operated in the TEM00 mode at 514.5 nm. The beam was directed toward an aluminized mechanical shutter (AW Vincent Associates, Rochester, NY), which reflected it at a right angle through a 514.5-nm custom interference filter with a transmittance of 92% (Omega Optical, Brattleboro, VT) and then through a fused silica lens with a focal length of 7.5 cm for focusing into a 2.5-m fiberoptic cable 400 μm in diameter. In the optical fiber, the gaussian input beam profile was converted into an output beam. The output was collimated by a plano convex lens 3.5 cm in focal length and focused with a plano convex lens with a focal length of 1.0 cm. The lenses were mounted in a beam telescope attached to an X-Y positioning device (Daedal Inc., Harrison City, Pa.). The beam diameter was measured with a calibrated reticle in the ocular of a ×20 operating microscope. By observing, through a 514.5-nm rejection filter, the fluorescence of a white card impregnated with rhodamine B, the minimum diameter of the organe fluorescent spot at the focal point was determined to be 63 μm. Combining the transmission efficiencies of the three uncoated lenses (92% per lens, 76% total transmission) with those of the optical fiber and interference filter yielded a system transmission efficiency of 61.5%. This reduced the incident power level of the laser from 215 mW to an effective power level of 132 mW; this corresponded to an incident intensity at the focal point of 4.23 kW/cm^2 . During shutter closure, irradiations were carried out in 0.2-s intervals. When the shutter was opened, the low-power beam, which was reflected off an optical flat and through the optical system, was used for aligning the next vessel selected for irradiation.
One eye of each rabbit was subjected to laser applications that were directed toward the vascular branching points of the limbal and corneal feeder vessels adjacent to the sites of lipid deposits. The irradiated blood vessel segment was observed through the ×20 operating microcope fitted with the 514.5-nm rejection band interference filter. Initially, the irradiated segment appeared yellow-orange because the fluorescence of rose bengal had been absorbed into erythrocyte plasma membranes and plasma proteins. As platelets accumulated, the fluorescence became yellowish and less intense. The color gradually disappeared due to the exclusion of red blood cells, indicating occlusion of the vessel. A striking event that preceded the thrombus was intense vasoconstriction at the site of irradiation. Constriction of the vessel could be observed following the initial one to three laser shots in each segment. […]

`O=C([O-])c1c(Cl)c(Cl)c(Cl)c(Cl)c1-c1c2cc(I)c(=O)c(I)c-2oc2c(I)c([O-])c(I)cc12.[Na+].[Na+]` [rose bengal] was tested, and the “consecutive shots to occlude each blood vessel” value (corneal blood vessels; 40 mg/kg i.v., 130 mW, 0.2 second) was no more than 10 shots, the “dye leakage in angiograms, treated areas” value (corneal blood vessels; follow-up angiograms) was “free of dye leakage” and the “regression of occluded corneal blood vessels” value (corneal blood vessels; four days after treatment) was “gradually regressed”. For the same compound, the epithelial breakdown (corneal blood vessels; rabbit, in vivo) was “No epithelial breakdown was observed”, the “persistence of hemorrhagic spots” value (corneal blood vessels; rabbit, in vivo) was “two to three” and the “retention of rose bengal in corneas” value (corneal blood vessels; rabbit, in vivo) was “all 16 corneas were clear of retained rose bengal”. For the same compound, the “occlusion of treated vessels” value (corneal blood vessels; two corneas, 18 weeks) was “all treated vessels remained occluded without recanalization, and no new vessel growth elsewhere was observed”, the “No. of Laser Shots” value (corneal neovasculature; 60 mg/kg (45 mg/kg plus booster 15 mg/kg 25 minutes later), individual rabbit) was 86 and 106 and the “treated corneal vessels occluded” value (corneal neovasculature; 21 days after laser) was “about 95%”. The fluorescein perfusion (corneal neovasculature; 21 days after laser, nine treated eyes) was “complete lack of perfusion”, the “laser shots required, average” value (corneal neovasculature; average) was 85 laser shots per quadrant and the “laser shots to vessel constriction” value (corneal neovasculature; each segment) was “one to three”. For the same compound, the “acute and chronic inflammatory cells” value (corneal neovasculature; rabbit, in vivo) was “mild to moderate numbers”, the “corneal edema or polymorphonuclear leukocyte infiltration” value (corneal neovasculature; rabbit, in vivo) was “does not produce corneal edema or polymorphonuclear leukocyte infiltration” and the “inflammation along limbal vessels” value (corneal neovasculature; rabbit, in vivo) was “No signs of inflammation”. For the same compound, the “new vessels formed in response to treatment” value (corneal neovasculature; rabbit, in vivo) was “nor were any new vessels formed”, the “laser shots required to occlude the corneal neovasculature” value (corneal neovasculature; range) was 58 to 106 laser shots per quadrant and the “times less incident intensity than photocoagulation” value (corneal neovasculature; vs photocoagulation) was 8.5 times. The “times less total light exposure than photocoagulation” value (corneal neovasculature; vs photocoagulation) was 27.5 times.

Source: patent US5053006A, “Method for the permanent occlusion of arteries” (priority 1990, dated 1991)
